Measurements as given in ChEMBL document CHEMBL5579856, “Stereospecific Synthesis and Biological Evaluation of KRN7000 Analogues with Thio-modifications at the Acyl Moiety” (2024).

Experiments:
Assay type in all cases: functional
Conditions in all cases: dose 200 µg/kg
[1] = system: Mus musculus; test: Induction of IFN-gamma secretion in male C57BL/6 mouse assessed as […] in serum at 200 ug/kg, iv measured after 16 hrs by ELISA (reference value: BLD)
[2] = system: Mus musculus; test: Induction of IL-4 secretion in male C57BL/6 mouse assessed as IL-4 level in serum at 200 ug/kg, iv measured after 4 hrs by ELISA (reference value: BLD)
[3] = system: Mus musculus; test: Induction of cytokine secretion in male C57BL/6 mouse assessed as ratio of IFN-gamma to IL-4 level in serum at 200 ug/kg, iv by ELISA

## CCCCCCCCCCCCCCCCCCCCCCCCCC(=O)N[C@@H](CO[C@H]1O[C@H](CO)[C@H](O)[C@H](O)[C@H]1O)[C@H](O)[C@H](O)CCCCCCCCCCCCCC [RGI-7000]
[1]
  Activity: 3083.43 pg/mL
[2]
  Activity: 1077.7 pg/mL

## CCCCCCCCCCCCCC[C@@H](O)[C@@H](O)[C@H](CO[C@H]1O[C@H](CO)[C@H](O)[C@H](O)[C@H]1O)NC(=O)CCCCCCCCCCc1ccc(Sc2ccc(F)cc2)cc1
[1]
  Activity: 2100.52 pg/mL
[2]
  Activity: 324.56 pg/mL
[3]
  Ratio: 2.26

## CCCCCCCCCCCCCC[C@@H](O)[C@@H](O)[C@H](CO[C@H]1O[C@H](CO)[C@H](O)[C@H](O)[C@H]1O)NC(=S)CCCCCCCCCCc1ccc(F)cc1
[1]
  Activity: 1610.18 pg/mL
[2]
  Activity: 276.98 pg/mL
[3]
  Ratio: 2.03

## CCCCCCCCCCCCCCCCCCCCCCCCCC(=S)N[C@@H](CO[C@H]1O[C@H](CO)[C@H](O)[C@H](O)[C@H]1O)[C@H](O)[C@H](O)CCCCCCCCCCCCCC
[1]
  Activity: 3291.25 pg/mL
[2]
  Activity: 951.79 pg/mL
[3]
  Ratio: 1.21

## CCCCCCCCCCCCCC[C@@H](O)[C@@H](O)[C@H](CO[C@H]1O[C@H](CO)[C@H](O)[C@H](O)[C@H]1O)NC(=S)CCCCCCCCCCc1ccc(Sc2ccc(F)cc2)cc1
[1]
  Activity: 1046.54 pg/mL
[2]
  Activity: 396.07 pg/mL
[3]
  Ratio: 0.99

## CCCCCCCCCCCCCC[C@@H](O)[C@@H](O)[C@H](CO[C@H]1O[C@H](CO)[C@H](O)[C@H](O)[C@H]1O)NC(=O)CCCCCCCCCCc1ccc(F)cc1
[1]
  Activity: 2470.48 pg/mL
[2]
  Activity: 425.65 pg/mL
[3]
  Ratio: 2.03

## CCCCCCCCCCCCCC[C@@H](O)[C@@H](O)[C@H](CO[C@H]1O[C@H](CO)[C@H](O)[C@H](O)[C@H]1O)NC(=S)CCCCCCCCCCc1ccc(Oc2ccc(F)cc2)cc1
[1]
  Activity: 571.16 pg/mL
[2]
  Activity: 125.69 pg/mL
[3]
  Ratio: 1.59

## CCCCCCCCCCCCCC[C@@H](O)[C@@H](O)[C@H](CO[C@H]1O[C@H](CO)[C@H](O)[C@H](O)[C@H]1O)NC(=O)CCCCCCCCCCc1ccc(Oc2ccc(F)cc2)cc1
[1]
  Activity: 655.43 pg/mL
[2]
  Activity: 205.34 pg/mL
[3]
  Ratio: 1.12
